Values joined by “and” are separate entries in the source; they are usually repeats but may differ in a detail not shown here. Identical values can stand only once.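 Protocol summary: plate cells (96-well), add compound at 5 concentrations, incubate 48 h, interpolate endpoints linearly. GI50 marks 50% less growth. At the TGI there is no net growth.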
Experiments:
Experiment in all cases: NCI-60 cell line screen, 48 h
CAKI-1 renal = system: CAKI-1 renal
UO-31 renal = system: UO-31 renal
ACHN renal = system: ACHN renal
OVCAR-4 ovarian = system: OVCAR-4 ovarian
SK-MEL-28 melanoma = system: SK-MEL-28 melanoma
HOP-62 NSCLC = system: HOP-62 NSCLC
786-0 renal = system: 786-0 renal
UACC-257 melanoma = system: UACC-257 melanoma
BT-549 breast = system: BT-549 breast
MCF7 breast = system: MCF7 breast

SMILES	TGI (CAKI-1 renal)	TGI (UO-31 renal)	TGI (ACHN renal)	TGI (OVCAR-4 ovarian)	TGI (SK-MEL-28 melanoma)	TGI (HOP-62 NSCLC)	TGI (786-0 renal)	TGI (UACC-257 melanoma)	GI50 (CAKI-1 renal)	GI50 (UO-31 renal)	GI50 (ACHN renal)	GI50 (SK-MEL-28 melanoma)	GI50 (BT-549 breast)	TGI (BT-549 breast)	GI50 (MCF7 breast)	TGI (MCF7 breast)	GI50 (HOP-62 NSCLC)	GI50 (786-0 renal)	GI50 (UACC-257 melanoma)	GI50 (OVCAR-4 ovarian)
CC(C)(c1ccccc1)c1ccc(OC#N)cc1	> 100 µM	98 µM	> 100 µM	> 100 µM	> 100 µM	> 100 µM	> 100 µM	> 100 µM	–	–	–	–	–	–	–	–	–	–	–	–
COc1ccc(OCC(=O)O)c(C(=O)CCC(=O)O)c1	–	> 100 µM	> 100 µM	> 100 µM	> 100 µM	> 10 µM	> 100 µM	> 100 µM	–	–	–	–	–	–	–	–	–	–	–	–
COc1cc(C2CC(c3ccc(Nc4ccnc5cc(Cl)ccc45)cc3)=NN2c2ccc(Cl)cc2)cc(OC)c1OC (centres undefined)	> 100 µM	> 100 µM	> 100 µM	–	55.9 µM	47.5 µM	> 100 µM	36.4 µM	2.12 µM	1.58 µM	1.85 µM	2.66 µM	2.93 µM	> 100 µM	0.86 µM	> 100 µM	2.14 µM	2.88 µM	2.72 µM	–
C=C(c1ccccc1)[C@@]1(O)CC[C@@H]1N(CC#N)Cc1ccccc1	45.7 µM	67.4 µM	41.4 µM	29.1 µM	28.8 µM	> 100 µM	35.4 µM	34 µM	–	–	–	–	–	37.1 µM	–	–	–	–	–	–
O=C(NC12CC3CC(CC(C3)C1)C2)C(=O)c1c[nH]c2ccccc12	–	36.6 µM	28.8 µM	31.4 µM	30.3 µM	36.7 µM	25.8 µM	25.9 µM	–	–	–	–	–	–	–	–	–	–	–	–
N#CC1(C#N)C(C#N)(C#N)C12CCCCCC2	24.6 µM	32.8 µM	23.2 µM	30 µM	21.4 µM	> 89.4 µM	14.3 µM	27.4 µM	–	–	–	–	–	–	–	–	–	–	–	–
COc1cccc(/C=N/C(/N=C/c2cccc(OC)c2O)c2cccc(OC)c2O)c1O	48.1 µM	58.6 µM	58.6 µM	–	> 100 µM	> 100 µM	> 100 µM	58.9 µM	–	–	–	–	–	71.9 µM	–	62.8 µM	–	–	–	–
COC(C)(C)C/C=C/C(C)=C/C=C/C(C)=C\C=C\C(C)=C\C=C\C=C(C)\C=C\C=C(C)\C=C\C=C(C)\C=C\CC(C)(C)OC	> 150 µg/mL	> 150 µg/mL	> 150 µg/mL	> 150 µg/mL	> 150 µg/mL	> 150 µg/mL	> 150 µg/mL	> 150 µg/mL	> 150 µg/mL	> 150 µg/mL	> 150 µg/mL	> 150 µg/mL	–	–	–	–	> 150 µg/mL	> 150 µg/mL	> 150 µg/mL	> 150 µg/mL
CC12CCC(Br)C(C)(C)C1CC=C1C(=O)OCC1O2 (centres undefined)	26.8 µM	> 42.6 µM	26.2 µM	42.3 µM	28.6 µM	–	> 48.6 µM	27 µM	–	–	–	–	–	41 µM	–	22.7 µM	–	–	–	–
C=C1C(=O)O[C@H]2[C@H]1CC/C(Cn1cc(-c3ccccc3C(F)(F)F)nn1)=C\CC[C@@]1(C)O[C@@H]21	2.63 µM	2.61 µM	2.93 µM	9.4 µM	3.47 µM	18.7 µM	3.92 µM	–	1.31 µM	1.23 µM	1.45 µM	1.75 µM	2.4 µM	8.28 µM	–	–	4.72 µM	1.84 µM	–	2.77 µM
COc1cc2c(cc1OC)/C(=C\c1ccccc1N)C(=O)OC2	27.1 µM	32.7 µM	34.7 µM	29 µM	41.5 µM	45.4 µM	9.96 µM	34.3 µM	–	–	–	–	–	–	–	–	–	–	–	–
COc1cccc(NC(=O)/C(Cc2nc3ccccc3nc2C)=N/NC(=O)C[n+]2ccccc2)c1	> 100 µM	> 100 µM	> 100 µM	> 100 µM	> 100 µM	> 100 µM	> 100 µM	> 100 µM	–	–	–	–	–	–	–	–	–	–	–	–
COC(=O)CC[C@H](Cc1ccccc1)NC(=O)c1csc([C@@H](C[C@H](C(C)C)N(C)C(=O)[C@@H](NC(=O)[C@H]2CCCCN2C)C(C)C)OC(C)=O)n1	–	> 25 µM	21.4 µM	> 25 µM	> 25 µM	> 25 µM	> 25 µM	> 25 µM	–	0.0165 µM	0.013 µM	> 25 µM	0.00275 µM	0.137 µM	< 0.0025 µM	> 25 µM	< 0.0025 µM	< 0.0025 µM	> 25 µM	0.023 µM
CC(C)OP(=O)(NC(=S)c1ccccc1)OC(C)C	> 100 µM	> 100 µM	> 100 µM	> 100 µM	> 100 µM	–	> 100 µM	> 100 µM	–	–	–	–	–	–	–	–	–	–	–	–
N#CC1CCCCCCCCCCC(=O)N(CCCl)C1=O (centres undefined)	> 100 µM	> 100 µM	> 100 µM	> 100 µM	> 100 µM	> 100 µM	> 100 µM	> 100 µM	–	–	–	–	–	–	–	–	–	–	–	–
CN(C)CCCNC(=O)c1cc(NC(=O)c2cc(NC(=O)CCNS(=O)(=O)c3ccc4c(c3)C(=O)c3ccccc3C4=O)cn2C)cn1C	> 100 µM	> 100 µM	–	–	–	–	> 100 µM	> 100 µM	> 100 µM	> 100 µM	–	–	> 100 µM	> 100 µM	> 100 µM	> 100 µM	–	> 100 µM	> 100 µM	–
CN(C)CC/[N+]([O-])=C(/c1ccccc1)C12CC3CC(CC(C3)C1)C2	31.5 µM	24.6 µM	29.8 µM	–	29.9 µM	28.9 µM	26.8 µM	29.9 µM	–	–	–	–	–	–	–	–	–	–	–	–
S=P(N1CC1)(N1CC1)N1CC1	–	39.3 µM and 288 µM and 69 µM	37.3 µM and 335 µM	–	72.6 µM and 574 µM	–	31.2 µM and 187 µM and 306 µM	–	6.08 µM and 20 µM	18.2 µM and 28.3 µM	3.39 µM	34.7 µM	224 µM	507 µM and 445 µM	–	311 µM and 550 µM	–	5.33 µM and 52.4 µM	29 µM and 272 µM	–
C=CCC1C(=O)CC2(C)CC(=O)C(CC=C)C12C (centres undefined)	> 100 µM	> 100 µM	> 100 µM	> 100 µM	> 100 µM	> 100 µM	> 100 µM	> 100 µM	–	–	–	–	–	–	–	–	–	–	–	–
Cc1cc(C)cc(NC(N)=S)c1	> 100 µM	> 100 µM	> 100 µM	> 100 µM	> 100 µM	> 100 µM	> 100 µM	> 100 µM	–	–	–	–	–	–	–	–	–	–	–	–
